Measurements as given in patent publication US9676727B2, “Myxovirus therapeutics, compounds, and uses related thereto” (priority 2011, dated 2017).
≈ marks a conversion by molar mass, not a printed value. Read-outs that look alike come from different tables or passages of the source.

Key:
MTT cytotoxicity = format: cell-based; conditions: African green monkey, Vero cells; averages of at least three experiments; highest concentration assessed 75 μM
MV-Alaska [1] = test: Viral CPE-reduction assay (MeV-Alaska in Vero-SLAM cells, crystal violet); format: cell-based, Measles virus (MeV); conditions: Measles morbillivirus
Description: Methods for evaluating viral activity are provided for in Yoon et al., J Biomol Screen., 2008, 13(7): 591-608 and Krumm et al., PLoS ONE, 2011, 6(5), e20069, both hereby incorporated by reference in their entirety. In certain instances, Vero-SLAM cells were infected with MeV-Alaska in four replicates per compound concentration in a 96-well plate format at an MOI of 0.4 pfu/cell in the presence of the inhibitor. At 96 hours post-infection, cell monolayers were subjected to crystal violet staining (0.1% crystal violet in 20% ethanol), and the absorbance of dried plates at 560 nm determined. Virus-induced cytopathicity was then calculated according to the formula [% rel. CPE=100-(experimental-minimum)/(maximum-minimum)*100], with minimum referring to infected, vehicle-treated wells and maximum to mock-infected wells.

MV-Alaska [2] = test: Virus yield (virus titer) reduction assay; format: cell-based, Measles virus (MeV); conditions: Measles morbillivirus
[3] = Aqueous solubility by nephelometry; format: physicochemical; conditions: for solubility: buffer, pH 7.4, aqueous buffer, kinetic from dmso stock
[4] = Pharmacokinetic study in rat, plasma concentration after dosing; format: in vivo, Sprague-Dawley rat; conditions: for AUC(0-inf) / AUC (0-t) / Cmax / Tmax / half-life: suspension in PEG200/0.5% methylcellulose (10/90); for AUC (0-t): read-out: AUC (0-t); for Cmax: read-out: Cmax; for Tmax: read-out: Tmax; for half-life: read-out: T½ (converted)
Description: Preliminary pharmacokinetic (PK) studies in the Sprague-Dawley rat compared AS-136a with compounds 2k and 2o following p.o. dosing by oral gavage at 10 mg/kg and 50 mg/kg in a PEG200/0.5% methylcellulose (10/90) vehicle (n=4/group).
The data from the preliminary pharmacokinetic studies using the 6-hour time point are reported for comparison purposes. […] On the basis of its excellent in vitro potency, good solubility and pharmacokinetic profile, compound 2o was chosen for further bioavailability evaluation.

[5] = Sprague-Dawley, plasma, oral 10 mg/kg
[6] = Sprague-Dawley, plasma, oral 50 mg/kg

`Cn1nc(C(F)(F)F)cc1C(=O)Nc1ccc(S(=O)(=O)N2CCCCC2CCN2CCOCC2)cc1` (single isomer, unassigned) [Compound 2o, 1-methyl-N-(4-((2-(2-morpholinoethyl)piperidin-1-yl)sulfonyl)phenyl)-3-(trifluoromethyl)-pyrazole-5-carboxamide] showed a CC50 (MTT cytotoxicity) greater than 75 µM, an EC50 (MV-Alaska [1]; Table 1, piperidine series, read-out: EC50 (μM) (MV-Alaska) (CPE inhib.)) of 4.5 µM and an EC50 (MV-Alaska [1]; Table 3, averages of four experiments, concentration range 2.3-75 μM, read-out: EC50 (μM) (MV-Alaska) CPE inhibition) of 4.5 µM. For the same compound, the EC50 (MV-Alaska [2]; MV-Alaska, read-out: EC50 in the virus titer reduction assay) was 0.02 µM, the EC50 (MV-Alaska [2]; averages of two to four experiments ± SEM, highest concentration assessed 1 μM, read-out: EC50 (μM) (MV-Alaska) virus titer reduction) was 0.02 µM and the solubility ([3]; Nephelometer, read-out: Aqueous solubility (μg/ml) Test) was 60 µg/mL (≈ 113 µM). The solubility ([3]; nephelometry, read-out: aqueous solubility) was roughly 60 µg/mL (≈ 113 µM), the AUC(0-inf) [4, 5] was 818 ng·h/mL and the AUC (0-t) [4, 5] was 683 ng·h/mL. It also gave a Cmax [4, 5] of 195 ng/mL, a Tmax [4, 5] of 1.1 h and a half-life [4, 5] of 2.2 h. It also gave an AUC(0-inf) [4, 6] of 7860 ng·h/mL, an AUC (0-t) [4, 6] of 3520 ng·h/mL and a Cmax [4, 6] of 823 ng/mL. For the same compound, the Tmax [4, 6] was 1.5 h, the half-life [4, 6] was 6.5 h and the bioavailability ([4]; Sprague-Dawley, plasma, oral, 2 mg/kg i.v. and 10 mg/kg p.o., read-out: oral bioavailability (F)) was 39%. The “exposure (AUC/Cmax) increase in rat relative to AS-136a” value ([4]; p.o.) was 10 fold and the dose proportionality ([4]; p.o., range of 10 mg/kg to 50 mg/kg) was “near dose proportionality”.

For `Cn1nc(C(F)(F)F)cc1C(=O)Nc1ccc(S(=O)(=O)c2ccccc2O)cc1` [Compound 3c, N-(4-((2-hydroxyphenyl)sulfonyl)phenyl)-1-methyl-3-(trifluoromethyl)-pyrazole-5-carboxamide], the CC50 (MTT cytotoxicity) was no less than 75 µM, the EC50 (MV-Alaska [1]; Table 2, phenyl and acyclic series, read-out: EC50 (μM) (MV-Alaska) (CPE inhibition)) was 4.5 µM and the “Aqueous solubility (μg/ml) Test” value ([3]; Nephelometer, buffer pH=7.4) was 67 µg/mL.
